This note sets out measurements from patent US20260184663A1, “INDENE COMPOUNDS, PHARMACEUTICAL COMPOSITIONS THEREOF, AND THEIR THERAPEUTIC APPLICATIONS” (NucMito Pharmaceuticals co. Ltd., priority 2022, published 2026).

Where two headings read alike, the source gives them in different places.

What all share (type): cell-based
For experiment [1], the system named is MDA-MB-231 (breast cancer). Put plainly: Antiproliferative activity (CCK-8 cell viability), MDA-MB-231. The conditions noted are these: Homo sapiens, 72 h, read-out: Antiproliferative activity in cancerous cells, MDA-MB-231 (inhibition of cell growth); for inhibition at 3.3 µM: Compound concentration: 3.3 μM; for inhibition at 10 µM: Compound concentration: 10 μM. In a few lines:
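In this CCK-8 viability assay, MDA-MB-231 cells maintained in Dulbecco's modified Eagle's medium containing 10% fetal bovine serum were placed in 96-well plates (2,000-5,000 cells/well) and treated with compound for 72 h at 37° C. A 4 h incubation with 10 μL CCK-8 followed, plates were read at 450 nm, and viability was expressed against DMSO vehicle wells across replicates.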

The subject of another experiment is HepG2 (liver cancer). Put plainly: Antiproliferative activity (CCK-8 cell viability), HepG2. The settings on record: Homo sapiens, 72 h, read-out: Antiproliferative activity in cancerous cells, HepG2 (inhibition of cell growth); for inhibition at 3.3 µM: Compound concentration: 3.3 μM; for inhibition at 10 µM: Compound concentration: 10 μM. In a few lines:
(§1)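 Cells were seeded at 2,000-5,000/well (HeLa in MEM, HepG2 and SW480 in DMEM, A549 in F-12K, all with 10% FBS) and treated with compound at 3.3, 10 or 30 μM for 72 h at 37° C. CCK-8 was added for 4 h, absorbance was read at 450 nm, and viability was expressed relative to DMSO-treated wells.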

The subject of a further experiment is SW480 (colon cancer). The experiment is described as follows: Antiproliferative activity (CCK-8 cell viability), SW480. The conditions noted are these: Homo sapiens, 72 h; for inhibition at 3.3 µM: Compound concentration: 3.3 μM; for inhibition at 10 µM: Compound concentration: 10 μM; for inhibition at 30 µM: Compound concentration: 30 μM. A digest of the protocol:
as §1

Experiment [2] deals with B16F10 (malignant melanoma). Put plainly: Antiproliferative activity (CCK-8 cell viability), B16F10. The conditions noted are these: Mus musculus, 72 h, read-out: Antiproliferative activity in cancerous cells, B16F10 (inhibition of cell growth); for inhibition at 3.3 µM: B16-F10, Compound concentration: 3.3 μM; for inhibition at 10 µM: B16-F10, Compound concentration: 10 μM. In a few lines: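 Attached B16F10 cells in 96-well plates were incubated with compound at 37° C for 72 h, followed by 10 μL CCK-8 reagent per well and a further 4 h incubation. A multi-well plate reader measured absorbance at 450 nm. Percent viability across replicates was calculated against DMSO vehicle-treated cells.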

In experiment [3] the test system is A431 (epidermoid carcinoma). The experiment is described as follows: Antiproliferative activity (CCK-8 cell viability), A431. The settings on record: Homo sapiens, 72 h; for inhibition at 3.3 µM: A-431, Compound concentration: 3.3 μM; for inhibition at 10 µM: A-431, Compound concentration: 10 μM; for inhibition at 30 µM: A-431, Compound concentration: 30 μM. In a few lines:
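Cell viability of compound-treated A431 cells was measured with a Cell Counting Kit-8. Each well received 10 μL of CCK-8 after 72 h of compound exposure, followed by 4 h incubation at 37° C. and a 450 nm plate-reader measurement. Percent viability was calculated relative to DMSO controls across replicates.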

The test system of experiment [4] is A549 (lung adenocarcinoma). Put plainly: Antiproliferative activity (CCK-8 cell viability), A549. The conditions noted are these: Homo sapiens, 72 h; for inhibition at 3.3 µM: Compound concentration: 3.3 μM; for inhibition at 10 µM: Compound concentration: 10 μM; for inhibition at 30 µM: Compound concentration: 30 μM. A digest of the protocol: as §1
Another experiment deals with HeLa (cervical cancer). Put plainly: Antiproliferative activity (CCK-8 cell viability), HeLa. The settings on record: Homo sapiens, 72 h, read-out: Antiproliferative activity in cancerous cells, HELA (inhibition of cell growth); for inhibition at 3.3 µM: Compound concentration: 3.3 μM; for inhibition at 10 µM: Compound concentration: 10 μM. In a few lines:
as §1

[5] abbreviates: read-out: Antiproliferative activity in cancerous cells, SW480 (inhibition of cell growth).
Setting [6] is: read-out: Antiproliferative activity in cancerous cells, A431 (inhibition of cell growth).
The mark [7] stands for this setting: read-out: Antiproliferative activity in cancerous cells, A549 (inhibition of cell growth).

`CC1=C(CC(=O)O)c2cc(F)ccc2/C1=C\c1cccc(CNc2ccccc2)c1` [B14, (Z)-2-(5-Fluoro-2-methyl-1-(3-((phenylamino)methyl)benzylidene)-1H-inden-3-yl)acetic acid]: the inhibition at 3.3 µM is less than 30% in experiment [1]; less than 30% in the experiment on HepG2 (liver cancer); less than 30% in the experiment on SW480 (colon cancer) (setting [5]); less than 30% in experiment [2]; less than 30% in experiment [3] (setting [6]); not below 50% in experiment [4] (setting [7]). For the same compound, the inhibition at 3.3 µM in the experiment on HeLa (cervical cancer) is 30 to 50%. The inhibition at 10 µM is 30 to 50% in experiment [1]; less than 30% in the experiment on HepG2 (liver cancer); less than 30% in the experiment with SW480 (colon cancer) (setting [5]); 30 to 50% in experiment [2]; less than 30% in experiment [3] (setting [6]); not below 50% in experiment [4] (setting [7]). Besides, the inhibition at 10 µM in the experiment on HeLa (cervical cancer) was 30 to 50%. The inhibition at 30 µM in the experiment on SW480 (colon cancer) (read-out: Antiproliferative activity in cancerous cells, SW480) lay in the range of 30 to 50%; in experiment [3] (read-out: Antiproliferative activity in cancerous cells, A431), 30 to 50%; in experiment [4] (read-out: Antiproliferative activity in cancerous cells, A549) it was 30 to 50%.

Turning to `CC1=C(CC(=O)O)c2cc(F)ccc2/C1=C\c1cccc(C(F)(F)c2ccccc2)c1` [C301, (Z)-2-(1-(3-(Difluoro(phenyl)methyl)benzylidene)-5-fluoro-2-methyl-1H-inden-3-yl)acetic acid], the inhibition at 3.3 µM is not below 50% in experiment [1]; less than 30% in the experiment on HepG2 (liver cancer); less than 30% with SW480 (colon cancer) (setting [5]); 30 to 50% in experiment [2]; less than 30% in experiment [3] (setting [6]); less than 30% in experiment [4] (setting [7]). The inhibition at 3.3 µM in the experiment on HeLa (cervical cancer) was less than 30%. In addition, the inhibition at 10 µM in experiment [1] is not below 50%; with HepG2 (liver cancer) it was less than 30%; in the experiment with SW480 (colon cancer) (setting [5]), less than 30%; in experiment [2] it was not below 50%; in experiment [3] (setting [6]), less than 30%; in experiment [4] (setting [7]), less than 30%. Further, in the experiment with HeLa (cervical cancer), the inhibition at 10 µM was not below 50%. Also, the inhibition at 30 µM in experiment [1] (Compound concentration: 30 μM) was not below 50%; in the experiment with HepG2 (liver cancer) (Compound concentration: 30 μM), not below 50%; in the experiment on SW480 (colon cancer) (setting [5]), not below 50%; in experiment [2] (B16-F10, Compound concentration: 30 μM) it was not below 50%; in experiment [3] (setting [6]), not below 50%; in experiment [4] (setting [7]), not below 50%. Also, in the experiment on HeLa (cervical cancer) (Compound concentration: 30 μM), the inhibition at 30 µM is not below 50%.

Turning to `CC1=C(CC(=O)O)c2cc(Cl)ccc2/C1=C\c1cccc(Oc2ccc(O)cc2)c1` [C104, (Z)-2-(5-Chloro-1-(3-(4-hydroxyphenoxy)benzylidene)-2-methyl-1H-inden-3-yl)acetic acid], the inhibition at 3.3 µM was less than 30% in experiment [1]; less than 30% in the experiment with HepG2 (liver cancer); less than 30% in the experiment with SW480 (colon cancer) (setting [5]); not below 50% in experiment [2]; not below 50% in experiment [3] (setting [6]); less than 30% in experiment [4] (setting [7]). For the same compound, in the experiment on HeLa (cervical cancer), the inhibition at 3.3 µM was not below 50%. In addition, the inhibition at 10 µM (in experiment [1]; in the experiment with HepG2 (liver cancer); in the experiment on SW480 (colon cancer) (setting [5]); in experiment [2]; in experiment [3] (setting [6]); in experiment [4] (setting [7])) was not below 50% in each case. Also, the inhibition at 10 µM in the experiment on HeLa (cervical cancer) is not below 50%.

In the case of `CC1=C(CC(=O)O)c2cc(F)ccc2/C1=C\c1ccc(CCCc2ccc(Cl)cc2)cc1` [B119, (Z)-2-(1-(4-(3-(4-Chlorophenyl)propyl)benzylidene)-5-fluoro-2-methyl-1H-inden-3-yl)acetic acid], the inhibition at 3.3 µM in experiment [1] was less than 30%; with HepG2 (liver cancer), not below 50%; with SW480 (colon cancer) (setting [5]), not below 50%; in experiment [2] it was less than 30%; in experiment [3] (setting [6]) it was not below 50%; in experiment [4] (setting [7]) it was 30 to 50%. The inhibition at 3.3 µM in the experiment with HeLa (cervical cancer) is less than 30%. In addition, the inhibition at 10 µM in experiment [1] is less than 30%; in the experiment with HepG2 (liver cancer), not below 50%; in the experiment with SW480 (colon cancer) (setting [5]), not below 50%; in experiment [2], not below 50%; in experiment [3] (setting [6]), not below 50%; in experiment [4] (setting [7]), not below 50%. Also, the inhibition at 10 µM in the experiment with HeLa (cervical cancer) was not below 50%.

`COc1cc(Oc2ccc(/C=C3/C(C)=C(CC(=O)O)c4cc(F)ccc43)cc2)ccc1Cl` [C71, (Z)-2-(1-(4-(4-Chloro-3-methoxyphenoxy)benzylidene)-5-fluoro-2-methyl-1H-inden-3-yl)acetic acid]: the inhibition at 3.3 µM in experiment [1] is less than 30%; in the experiment on HepG2 (liver cancer), not below 50%; in the experiment on SW480 (colon cancer) (setting [5]), less than 30%; in experiment [2] it was not below 50%; in experiment [3] (setting [6]) it was not below 50%; in experiment [4] (setting [7]) it was less than 30%. Besides, the inhibition at 3.3 µM in the experiment with HeLa (cervical cancer) lay in the range of 30 to 50%. Besides, the inhibition at 10 µM in experiment [1] is 30 to 50%; in the experiment with HepG2 (liver cancer), not below 50%; in the experiment on SW480 (colon cancer) (setting [5]), not below 50%; in experiment [2], not below 50%; in experiment [3] (setting [6]) it was not below 50%; in experiment [4] (setting [7]), 30 to 50%. Besides, the inhibition at 10 µM with HeLa (cervical cancer) was not below 50%.

Take `COc1ccc(S(=O)(=O)c2ccc(/C=C3/C(C)=C(CC(=O)O)c4cc(F)ccc43)cc2)cc1` [C41, (Z)-2-(5-Fluoro-1-(4-((4-methoxyphenyl)sulfonyl)benzylidene)-2-methyl-1H-inden-3-yl)acetic acid]: the inhibition at 3.3 µM was not below 50% in experiment [1]; less than 30% in the experiment on HepG2 (liver cancer); less than 30% in the experiment with SW480 (colon cancer) (setting [5]); 30 to 50% in experiment [2]; 30 to 50% in experiment [3] (setting [6]); less than 30% in experiment [4] (setting [7]). Moreover, the inhibition at 3.3 µM with HeLa (cervical cancer) is less than 30%. In addition, the inhibition at 10 µM (in experiment [1]; in the experiment on HepG2 (liver cancer); in the experiment on SW480 (colon cancer) (setting [5]); in experiment [2]; in experiment [3] (setting [6]); in experiment [4] (setting [7])) was not below 50% in each case. Also, the inhibition at 10 µM in the experiment with HeLa (cervical cancer) was not below 50%.
